Results as given in patent US12527886B2, “Radiopharmaceuticals and composition for thrombus imaging” (THE ASAN FOUNDATION, priority 2020, dated 2026).

Key:
glycoprotein IIb/IIIa = molecular target: T1, glycoprotein IIb/IIIa (Rattus norvegicus, UniProt A0A8I6GGN2+Q8R2H2); experiment: Glycoprotein IIb/IIIa specific uptake in thrombotic disease model, gamma counter / microSPECT; assay type: in vivo, rats
T1 construct: a disease model in which a thrombus was formed with glycoprotein IIb/IIIa overexpressed; from tissue; host or cells: in vivo rat carotid artery thrombus (ferric chloride model)
Source text: After 6-week-old rats were anesthetized to make a thrombotic disease model, the carotid artery was secured by opening the skin on the carotid artery side. Then, a filter paper soaked with a 5% ferric chloride solution was exposed on the artery, and then washed three times or more with physiological saline, and the incised skin was sutured again to make a model. […]

[1] = Stability of Tc-99m labeled compound by radioTLC; assay type: physicochemical; conditions: for Eluent A / Eluent B: in % (unit assumed)
Method: (§1) After 2.0 mg of GP-104 was dissolved in 1.8 mL of water for injection and 0.2 mL of ethanol, the resulting solution was allowed to stand with a pH of about 5 at room temperature for 10 minutes when 20 μL of SnCl2 (15 mg/mL) and 2 mL of Tc-99m were added thereto, and the reaction was terminated by adjusting the pH to 7 using a NaOH solution. Stability up to 4 hours was confirmed by radioTLC under conditions of pH 5 and pH 7, respectively, and the results are summarized in the following Table 1. (TLC analysis conditions: iTLC was used, Eluent A: methyl ethyl ketone 100%, Eluent B: pyridine:acetic acid:purified water=3:5:15, and purity calculation: Eluent A−Eluent B)
as §1, with “ethanol, pH was adjusted to about 5 and” for “ethanol,”, “stand” for “stand with a pH of about 5”, “(15 mg/mL), 20 μL of cysteine (10” for “(15”, “Table 2.” for “Table 1.”
(§2) After 2.0 mg of GP-105 was dissolved in 1.8 mL of water for injection and 0.2 mL of ethanol, the pH was adjusted to about 5 and the resulting solution was allowed to stand at room temperature for 10 minutes when 20 μL of SnCl2 (15 mg/mL) and 2 mL of Tc-99m were added thereto, and the reaction was terminated by adjusting the pH to 7 using a NaOH solution. Stability until 4 hours under conditions of pH 5 and pH 7 was each confirmed by radioTLC. (TLC analysis conditions: iTLC was used, Eluent A: methyl ethyl ketone 100%, Eluent B: pyridine:acetic acid:purified water=3:5:15, and purity calculation: Eluent A−Eluent B)
as §2, with “ethanol,” for “ethanol, the”, “(15 mg/mL), 20 μL of cysteine (10” for “(15”

[2] = gamma counter, sacrificed at the 2nd hour
[3] = Ex 4-1, no cysteine, pH 5, 0 hour
[4] = Ex 4-1, no cysteine, pH 5, 0.5 hours
[5] = Ex 4-1, no cysteine, pH 5, 1.0 hour
[6] = Ex 4-1, no cysteine, pH 5, 1.5 hours
[7] = Ex 4-1, no cysteine, pH 5, 2.0 hours
[8] = Ex 4-1, no cysteine, pH 5, 3.0 hours
[9] = Ex 4-1, no cysteine, pH 5, 4.0 hours
[10] = Ex 4-1, no cysteine, pH 7, 0 hour
[11] = Ex 4-1, no cysteine, pH 7, 0.5 hours
[12] = Ex 4-1, no cysteine, pH 7, 1.0 hour
[13] = Ex 4-1, no cysteine, pH 7, 1.5 hours
[14] = Ex 4-1, no cysteine, pH 7, 2.0 hours
[15] = Ex 4-1, no cysteine, pH 7, 3.0 hours
[16] = Ex 4-1, no cysteine, pH 7, 4.0 hours
[17] = Ex 4-2, cysteine, pH 5, 0.5 hours
[18] = Ex 4-2, cysteine, pH 5, 1.0 hour
[19] = Ex 4-2, cysteine, pH 5, 1.5 hours
[20] = Ex 4-2, cysteine, pH 5, 2.0 hours
[21] = Ex 4-2, cysteine, pH 5, 3.0 hours
[22] = Ex 4-2, cysteine, pH 5, 4.0 hours
[23] = Ex 4-2, cysteine, pH 7, 0.5 hours
[24] = Ex 4-2, cysteine, pH 7, 1.0 hour
[25] = Ex 4-2, cysteine, pH 7, 1.5 hours
[26] = Ex 4-2, cysteine, pH 7, 2.0 hours
[27] = Ex 4-2, cysteine, pH 7, 3.0 hours
[28] = Ex 4-2, cysteine, pH 7, 4.0 hours

T1 sequence (A0A8I6GGN2 32-1037): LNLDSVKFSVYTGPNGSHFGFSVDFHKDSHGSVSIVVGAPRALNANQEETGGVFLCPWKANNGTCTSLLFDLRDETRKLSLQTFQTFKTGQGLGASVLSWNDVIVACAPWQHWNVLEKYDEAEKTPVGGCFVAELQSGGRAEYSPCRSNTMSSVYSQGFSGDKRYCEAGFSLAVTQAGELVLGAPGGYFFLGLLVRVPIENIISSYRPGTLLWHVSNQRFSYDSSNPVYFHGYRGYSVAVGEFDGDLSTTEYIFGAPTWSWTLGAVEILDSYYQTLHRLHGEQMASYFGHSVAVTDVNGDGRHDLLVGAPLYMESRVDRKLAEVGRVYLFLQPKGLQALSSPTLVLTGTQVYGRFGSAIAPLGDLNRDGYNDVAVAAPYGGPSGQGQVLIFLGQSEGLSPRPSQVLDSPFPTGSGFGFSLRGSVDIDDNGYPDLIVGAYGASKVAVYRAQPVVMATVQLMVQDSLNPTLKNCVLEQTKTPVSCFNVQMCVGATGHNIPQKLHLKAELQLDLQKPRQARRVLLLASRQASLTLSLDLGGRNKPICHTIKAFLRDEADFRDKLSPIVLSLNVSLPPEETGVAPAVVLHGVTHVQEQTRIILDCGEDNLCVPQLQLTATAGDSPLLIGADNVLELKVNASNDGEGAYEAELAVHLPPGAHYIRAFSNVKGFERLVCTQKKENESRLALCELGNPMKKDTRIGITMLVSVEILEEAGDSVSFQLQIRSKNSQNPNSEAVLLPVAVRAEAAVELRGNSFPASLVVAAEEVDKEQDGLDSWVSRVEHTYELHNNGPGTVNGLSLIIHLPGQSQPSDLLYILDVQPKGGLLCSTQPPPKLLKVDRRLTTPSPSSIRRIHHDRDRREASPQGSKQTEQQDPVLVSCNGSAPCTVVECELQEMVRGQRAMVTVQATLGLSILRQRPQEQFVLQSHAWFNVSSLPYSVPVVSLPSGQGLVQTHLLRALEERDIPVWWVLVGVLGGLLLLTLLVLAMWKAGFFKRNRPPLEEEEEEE
T1 sequence (Q8R2H2 26-787): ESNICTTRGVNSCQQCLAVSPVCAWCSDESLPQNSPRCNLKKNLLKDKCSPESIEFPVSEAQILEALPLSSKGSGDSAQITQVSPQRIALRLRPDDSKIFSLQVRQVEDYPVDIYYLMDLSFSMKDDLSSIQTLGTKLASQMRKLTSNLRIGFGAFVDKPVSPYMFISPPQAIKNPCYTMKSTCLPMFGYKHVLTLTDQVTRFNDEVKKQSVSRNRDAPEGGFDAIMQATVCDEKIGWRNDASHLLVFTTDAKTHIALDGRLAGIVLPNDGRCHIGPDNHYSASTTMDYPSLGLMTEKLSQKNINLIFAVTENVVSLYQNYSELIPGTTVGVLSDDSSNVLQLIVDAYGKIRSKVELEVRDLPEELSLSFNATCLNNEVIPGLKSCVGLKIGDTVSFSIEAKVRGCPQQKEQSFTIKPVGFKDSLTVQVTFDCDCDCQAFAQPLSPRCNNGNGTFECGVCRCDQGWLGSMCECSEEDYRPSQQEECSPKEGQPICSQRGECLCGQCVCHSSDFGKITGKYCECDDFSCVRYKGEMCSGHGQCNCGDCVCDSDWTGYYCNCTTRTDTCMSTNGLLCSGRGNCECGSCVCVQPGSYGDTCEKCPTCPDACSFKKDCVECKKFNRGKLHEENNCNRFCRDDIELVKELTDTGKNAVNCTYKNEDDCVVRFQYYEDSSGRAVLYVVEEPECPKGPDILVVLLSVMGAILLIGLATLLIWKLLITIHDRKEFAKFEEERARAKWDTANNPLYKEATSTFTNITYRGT

For `O=C(O)C[C@H](NC(=O)[C@@H]1CCCN(C(=O)CCC2CCNCC2)C1)c1cncc(OCCNC(=O)CN2CC(=O)[O][99Tc-]3([O]C(=O)C2)[O]C(=O)CN(CC(=O)NCCOc2cncc([C@H](CC(=O)O)NC(=O)[C@@H]4CCCN(C(=O)CCC5CCNCC5)C4)c2)CC(=O)[O]3)c1` [[Tc-99m]GP-105], the “specific uptake in the disease model” value (glycoprotein IIb/IIIa) was “high specific uptake”, the “target to non target ratio” value (glycoprotein IIb/IIIa; gamma counter, 2nd hour) was 2.7 and the “counts per minute (CPM)/g value, left artery” value (glycoprotein IIb/IIIa; [2]) was 23.5 CPM/g. The “counts per minute (CPM)/g value, right artery” value (glycoprotein IIb/IIIa; [2]) was 63.9 CPM/g, the background radioactivity excretion (glycoprotein IIb/IIIa; microSPECT until 4 hours) was “quick background radioactivity excretion effect” and the Purity [1, 3] was 82.93%. For the same compound, the “Eluent A” value [1, 3] was 100, the “Eluent B” value [1, 3] was 17.07 and the Purity [1, 4] was 72.53%. The “Eluent A” value [1, 4] was 95.67, the “Eluent B” value [1, 4] was 23.14 and the Purity [1, 5] was 73.13%. For the same compound, the “Eluent A” value [1, 5] was 97.07, the “Eluent B” value [1, 5] was 23.94 and the Purity [1, 6] was 71.23%. For the same compound, the “Eluent A” value [1, 6] was 94.54, the “Eluent B” value [1, 6] was 23.31 and the Purity [1, 7] was 60.81%. The “Eluent A” value [1, 7] was 93.25, the “Eluent B” value [1, 7] was 32.44 and the Purity [1, 8] was 60.99%. For the same compound, the “Eluent A” value [1, 8] was 80.67, the “Eluent B” value [1, 8] was 19.68 and the Purity [1, 9] was 57.11%. For the same compound, the “Eluent A” value [1, 9] was 82.64, the “Eluent B” value [1, 9] was 25.53 and the Purity [1, 10] was 82.93%. For the same compound, the “Eluent A” value [1, 10] was 100, the “Eluent B” value [1, 10] was 17.07 and the Purity [1, 11] was 65.63%. The “Eluent A” value [1, 11] was 90.76, the “Eluent B” value [1, 11] was 25.13 and the Purity [1, 12] was 60.37%. For the same compound, the “Eluent A” value [1, 12] was 85.38, the “Eluent B” value [1, 12] was 25.01 and the Purity [1, 13] was 58.73%. The “Eluent A” value [1, 13] was 95.97, the “Eluent B” value [1, 13] was 37.24 and the Purity [1, 14] was 54.3%. The “Eluent A” value [1, 14] was 96.17, the “Eluent B” value [1, 14] was 41.87 and the Purity [1, 15] was 54.12%. The “Eluent A” value [1, 15] was 94, the “Eluent B” value [1, 15] was 39.88 and the Purity [1, 16] was 40.17%. For the same compound, the “Eluent A” value [1, 16] was 85.5, the “Eluent B” value [1, 16] was 45.33 and the Purity ([1]; Ex 4-2, cysteine, pH 5, 0 hour) was 82.93%. The “Eluent A” value ([1]; Ex 4-2, cysteine, pH 5, 0 hour) was 100, the “Eluent B” value ([1]; Ex 4-2, cysteine, pH 5, 0 hour) was 17.07 and the Purity [1, 17] was 92.37%. The “Eluent A” value [1, 17] was 100, the “Eluent B” value [1, 17] was 7.63 and the Purity [1, 18] was 76.25%. The “Eluent A” value [1, 18] was 89.07, the “Eluent B” value [1, 18] was 12.82 and the Purity [1, 19] was 87.74%. The “Eluent A” value [1, 19] was 100, the “Eluent B” value [1, 19] was 12.26 and the Purity [1, 20] was 38.64%. The “Eluent A” value [1, 20] was 57.3, the “Eluent B” value [1, 20] was 18.66 and the Purity [1, 21] was 77.6%. For the same compound, the “Eluent A” value [1, 21] was 97.4, the “Eluent B” value [1, 21] was 19.8 and the Purity [1, 22] was 76.51%. The “Eluent A” value [1, 22] was 98.31, the “Eluent B” value [1, 22] was 21.8 and the Purity ([1]; Ex 4-2, cysteine, pH 7, 0 hour) was 90.38%. The “Eluent A” value ([1]; Ex 4-2, cysteine, pH 7, 0 hour) was 100, the “Eluent B” value ([1]; Ex 4-2, cysteine, pH 7, 0 hour) was 9.62 and the Purity [1, 23] was 92.28%. For the same compound, the “Eluent A” value [1, 23] was 98.65, the “Eluent B” value [1, 23] was 6.37 and the Purity [1, 24] was 85.19%. The “Eluent A” value [1, 24] was 98.4, the “Eluent B” value [1, 24] was 13.21 and the Purity [1, 25] was 91.63%. For the same compound, the “Eluent A” value [1, 25] was 97.22, the “Eluent B” value [1, 25] was 5.59 and the Purity [1, 26] was 89.39%. For the same compound, the “Eluent A” value [1, 26] was 95.62, the “Eluent B” value [1, 26] was 6.23 and the Purity [1, 27] was 90.09%. For the same compound, the “Eluent A” value [1, 27] was 100, the “Eluent B” value [1, 27] was 9.91 and the Purity [1, 28] was 96.79%. For the same compound, the “Eluent A” value [1, 28] was 100, the “Eluent B” value [1, 28] was 3.21 and the Purity ([1]; addition of cysteine, pH of 5 (Table 8)) was ≥ 70%. For the same compound, the Purity ([1]; addition of cysteine, pH of 7 (Table 8)) was ≥ 90% and the maximum purity ([1]; no cysteine, pH 5 and pH 7 (text to Table 7)) was 82.93%.
